“Also recorded” adds a separate entry of the source. Where two headings read alike, the source gives them in different places.
Key:
[1] = tested on: Wnt induced calcium release; assay: Wnt induced [Ca2+]i release after preincubation with thapsigargin or membrane potential regulating compounds; format: cell-based
Method: The imaging protocol was developed in the inventor's laboratory and has been described in detail, elsewhere (Wang at al., (2010) PLoS ONE 5, e10456). Briefly, 100000-200000 PC3, MCF7, 253J or Cos 7 cells were plated on 35 mm FluoroDish (WPI) and grown for 48 h; calcium indicators Fluo-4 (Invitrogen) and FuraRed (Invitrogen) at 1 ng/ml were added to FluoroDish containing only 1 ml of culture medium and incubated for 15-20 min at 37° C. The culture medium was removed and washed (×2) and replaced with 1 ml PBS. Live cell calcium Imaging was performed on an Olympus FluoView FV 1000 confocal microscope (Olympus KeyMed) equipped with a 20× dry objective (numerical aperture=0.75). Calcium indicators were excited with an argon laser line (488 nm) and emissions recorded in the green channel (500-560 nm) for Fluo-4 and red channel (600-700 nm) for FuraRed after addition of vehicle control (PBS) or Wnt X (30-600 ng/ml). Images were acquired every 1.1 or 2.2 seconds for up to 600-800s; image and data acquisition was performed using FluoView 1000 software (Olympus, UK). Fluorescent intensity was measured and data exported as a tab delimited file for further analysis using a spreadsheet. All imaging experiments were performed in duplicate; intracellular calcium at 100 ng/ml was measured in at least 3-12 different passages (passage numbers 25 to 37) of cell line for each Wnt ligand. Wnt 11 was tested in at least 5 different passages at 3 different concentrations. […]
To measure the effect of changes in membrane potential on [Ca^2+]i release using the protocol described above, in some experiments, external solution (PBS) was substituted with varying concentrations of KCl. In other experiments chemical inhibitors of K^+ channels such as TEA, CsCl or tolbutamide (Sigma-Aldrich) were added to the cells grown on FluoroDish, at 37° C., at least 5 min prior to addition of Wnt ligands.
After image acquisition, regions of interest (ROI) were drawn over individual PC3 cells (up to 25) in a single frame and calcium intensity measurements were made using FluoView 1000 software (Olympus, UK). The measurements were exported as a tab delimited file into a spreadsheet for further analysis and Fluo4/Fura Red ratios were calculated. The waveform, a product of the ratio of Fluo4 and FuraRed over the period of measurement was used to measure the kinetics of the activation of [Ca^2+]i release in PC3 cells, in response to different Wnt ligands. The time constants (rise, dwell and fall times) were calculated by first fitting the Fluo4/FuraRed ratio to a single Gaussian function (Origin Lab Corp., MA); a lower (10%) and upper (90%) amplitude thresholding method was then used to calculate the time constants (s). Statistical significance was calculated using Mann Whitney U test.

[2] = tested on: PC3 prostate cancer cell line; assay: Cell proliferation assay, live imaging (Incucyte), PC3; format: cell-based
Method: Growth curve was monitored at 37° C. in a CO2 incubator by using time lapse imaging with Incucyte (Essen Biosciences) for up to 150 h after plating the cells (t=o) at a density of 25-100 k cells per well in a 6 well plate (Nunc). MPRCs were added at the stated concentrations 24 h after cell plating;
A live imaging system (Incucyte, EssenBiosciences) was used to measure the effect of K^+ channel inhibitors on the rate of cell proliferation. PC3 cells were plated on 6 well plates (Nunc) in 3 ml culture medium (Wang et al (2010) PLoS ONE 5, e10456); K^+ channel inhibitors were added to the wells at 0-15 mM. The plates were placed in Incucyte in a standard cell culture incubator at 37° C. and CO2. Each well was imaged at an interval of up to 4 h and rate of cell proliferation was calculated from these images using Incucyte software.

[3] = tested on: β-catenin translocation to the nucleus; assay: β-catenin immunocytochemistry and nuclear co-localization analysis, PC3; format: cell-based; conditions: PC3 cells, K+ channel inhibitors 1-15 mM, Wnt5A and 9B
Method: Immunostaining was performed in two different laboratories, independently with the experimenter blind to the identity of the treatment. Either cells used in FluoroDish, post [Ca^2+]i experiments using dyes (see above) or grown in 8 well chamber glass slides (Lab Tek II, Nunc) were used. For Wnt ligand treatment, the culture medium replaced with PBS (without calcium) at 37° C. The experiments were replicated for Wnt ligand or vehicle control as described for [Ca^2+]i measurements. Briefly, Wnt ligands were added and chamber slides incubated at 37° C. for up to 20 min. Chamber wells were washed 3× with 0.5 ml PBS and cells were fixed with 0.5 ml 4% formalin for 30 min at 4° C. Cells were washed 3× with ice cold PBS and stored in 0.5 ml PBS at 4° C. for immunostaining. In some experiments PC3 cells were treated with thaspsigargin as described above.
For immunostaining cells were washed twice for 5 minutes in TBST (20 mM Tris pH 7.4, 0.9% NaCl, 0.1% Tween 20, Sigma). Cells were then incubated in 20% normal goat serum (NGS)/TBST for 30 min at room temperature, the chambers were drained and cells were incubated with mouse anti-β-catenin (ab22656, Abcam, UK) at 1:500 dilution in NGS/TBST overnight at 4° C. Following two further 5 min washes in TBST sections were incubated in goat anti-mouse peroxidase fab (Abcam, UK) at 1:500 dilution for 30 min at room temperature. Following a further two 5 min washes in TBST cells were incubated with tyramide Cy3 (Perkin Elmer) for 10 min at room temperature. Sections were washed twice for 5 min in TBST before nuclear counterstaining with DAPI. After a final two 5 min washes, the chambers were removed and cover slip placed on slides using Permafluor (Thermo Shandon).
Fluorescence immunocytochemical staining for β-catenin expression in cell lines was imaged using Olympus Fluoview 1000 Confocal Microscope (Olympus KeyMed) mounted on an Olympus IX81 inverted microscope using a 20×0.7 NA or 40×1.0 NA dry objective with a zoom of ×3.4′,6-diamidino-2-phenylindole (DAPI, nuclear counterstain) was excited at 405 nm with an emission of 415-500 nm; Cy3 (β-catenin label) signal was excited at 561 nm with an emission spectrum between 570-670 nm. […] Z-stacks of at least 3 fields per sample were imaged and saved in Olympus FV (OIF or OIB) file format.
Nuclear co-localization of β-catenin was calculated by importing FV files for untreated, control or treated cells, into colocalization plugin of Fiji software (http://fiji.sc/Fiji) for Cy3 (β-catenin) and DAPI (nuclear) signals. Pearson co-relation of colocalization were tabulated for 25-90 cells (from 2-5 different passages of cells) using ROI analysis. Statistical significance between untreated and treated cells was calculated using Mann Whitney U test.

[4] = tested on: MCF7 breast cancer cell line; assay: Cell growth, time lapse imaging (Incucyte), MCF7; format: cell-based, human; conditions: MCF7 cells, nicorandil shown as an example
Method: Growth curve was monitored at 37° C. in a CO2 incubator by using time lapse imaging with Incucyte (Essen Biosciences) for up to 150 h after plating the cells (t=o) at a density of 25-100 k cells per well in a 6 well plate (Nunc). MPRCs were added at the stated concentrations 24 h after cell plating.

[5] = preincubation 5 min, Wnt 9B 0.1 μg/ml as example, CsCl 5 mM, CdCl2 1 mM, TEA 10 mM, Amiodarone 75 μM, Tolbutamide 1 mM, Isradipine 100 μM, Nifedipine 1 mM, Minoxidil 25 μM, Atenolol 37.5 μM, Propanolol 50 μM, Furosemide 150 μM
[6] = PC3 cells, inhibitors at 0-15 mM

Structure (SMILES): [Cl-].[Cs+] [CsCl]
- Wnt ligand induced calcium release after preincubation with MPRC (FIG. 16) [1, 5]: inhibited
- rate of cell proliferation (confluence of cell growth, FIG. 12) [2, 6]: inhibit proliferation
- Wnt mediated β-catenin stabilization and translocation to the nucleus (FIG. 11) [3]: reduced

Structure (SMILES): O=C(NCCO[N+](=O)[O-])c1cccnc1 [Nicorandil]
- Wnt signaling measured using intracellular calcium release (FIG. 22 A and B) [1]: do not inhibit
- cell proliferation (FIG. 22 C) ([2]; PC3 cells, Incucyte, nicorandil shown as an example): do not inhibit
- cell proliferation (FIG. 22 D) [4]: do not inhibit

Structure (SMILES): CC(C)NCC(O)COc1cccc2ccccc12 (stereo not drawn) [Propanolol]
- Wnt ligand induced calcium release after preincubation with MPRC (FIG. 16) [1, 5]: inhibited

Structure (SMILES): CC[N+](CC)(CC)CC [TEA, tetraethylammonium]
- Wnt induced [Ca2+]i release after pre-incubation with K+ channel blocker (FIG. 11) [1]: reduced; also recorded: abolished
- Wnt ligand induced calcium release after preincubation with MPRC (FIG. 16) [1]: inhibited
- rate of cell proliferation (confluence of cell growth, FIG. 12) [2]: inhibit proliferation
- Wnt mediated β-catenin stabilization and translocation to the nucleus (FIG. 11) [3]: reduced; also recorded: biggest reduction

Structure (SMILES): CCCCNC(=O)NS(=O)(=O)c1ccc(C)cc1 [Tolbutamide]
- Wnt ligand induced calcium release after preincubation with MPRC (FIG. 16) [1, 5]: inhibited
- rate of cell proliferation (confluence of cell growth, FIG. 12) [2, 6]: inhibit proliferation
- rate of cell proliferation (confluence of cell growth, FIG. 12) ([2]; PC3 cells, inhibitors at 0-15 mM, listed as tolbutamide): inhibition
- Wnt mediated β-catenin stabilization and translocation to the nucleus (FIG. 11) [3]: reduced; also recorded: inhibition
